# Measured values reported in ChEMBL document CHEMBL1126791, “Synthesis and antibacterial activity of a new series of tetracyclic pyridone carboxylic acids” (J Med Chem, 1993).
# Experiments:
# Escherichia coli [1] = assay: In vitro minimum inhibitory concentration against Escherichia coli KC-14; assay type: functional
# Enterococcus faecalis = assay: In vitro minimum inhibitory concentration against E. Faecalis IID682; assay type: functional
# Escherichia coli [2] = assay: Inhibitory effect on DNA gyrase supercoiling activity against Escherichia coli KL-16; assay type: functional
# Escherichia coli [3] = assay: In vitro minimum inhibitory concentration against Escherichia coli NIHJ JC-2; assay type: functional
# Staphylococcus aureus [4] = assay: In vitro minimum inhibitory concentration against Staphylococcus aureus IID 803; assay type: functional
# Escherichia coli [5] = assay: In vitro minimum inhibitory concentration against Escherichia coli KL-16; assay type: functional
# Klebsiella pneumoniae = assay: In vitro minimum inhibitory concentration against Klebsiella pneumoniae B54; assay type: functional
# Pseudomonas aeruginosa [6] = assay: In vitro minimum inhibitory concentration against Pseudomonas aeruginosa IFO 3445; assay type: functional
# Pseudomonas aeruginosa [7] = assay: In vitro minimum inhibitory concentration against Pseudomonas aeruginosa E-2; assay type: functional
# Salmonella typhimurium = assay: In vitro minimum inhibitory concentration against Salmonella Typhimurium IID 971; assay type: functional, Salmonella enterica subsp. enterica serovar Typhimurium; details: Salmonella enterica
# [8] = tested on: Staphylococcus epidermidis; assay: In vitro minimum inhibitory concentration against Staphylococcus epidermidis IAM 1296; assay type: functional
# Staphylococcus aureus [9] = assay: In vitro minimum inhibitory concentration against Staphylococcus aureus FDA 209P JC-1; assay type: functional
# Escherichia coli [10] = assay: Oral antibacterial activity against Escherichia coli KC-14 in mice; assay type: functional
# Staphylococcus aureus [11] = assay: Oral antibacterial activity against Staphylococcus aureus IID 803 in mice (95% confidence limits); assay type: functional
# Pseudomonas aeruginosa [12] = assay: Oral antibacterial activity against Pseudomonas aeruginosa E-2 in mice; assay type: functional
Compound,MIC (Escherichia coli [1]),MIC (Enterococcus faecalis),IC50 (Escherichia coli [2]),MIC (Escherichia coli [3]),MIC (Staphylococcus aureus [4]),MIC (Escherichia coli [5]),MIC (Klebsiella pneumoniae),MIC (Pseudomonas aeruginosa [6]),MIC (Pseudomonas aeruginosa [7]),MIC (Salmonella typhimurium),MIC [8],MIC (Staphylococcus aureus [9]),ED50 (Escherichia coli [10]),ED50 (Staphylococcus aureus [11]),ED50 (Pseudomonas aeruginosa [12])
CN1CCN(c2c(F)cc3c(=O)c(C(=O)O)c4scc5n4c3c2N(C2CC2)C5)CC1,0.1 µg/mL,0.78 µg/mL,0.34 µg/mL,0.2 µg/mL,0.2 µg/mL,0.2 µg/mL,0.2 µg/mL,1.56 µg/mL,3.13 µg/mL,0.39 µg/mL,0.39 µg/mL,0.2 µg/mL,,,
CCN1Cc2csc3c(C(=O)O)c(=O)c4cc(F)c(N5CCN(C)CC5)c1c4n23,0.2 µg/mL,0.78 µg/mL,0.25 µg/mL,0.39 µg/mL,0.2 µg/mL,0.2 µg/mL,0.2 µg/mL,3.13 µg/mL,3.13 µg/mL,0.2 µg/mL,0.2 µg/mL,0.2 µg/mL,,,
CN1CCN(c2c(F)cc3c(=O)c(C(=O)O)c4scc5n4c3c2OC5)CC1,0.1 µg/mL,0.39 µg/mL,0.14 µg/mL,0.1 µg/mL,0.1 µg/mL,0.05 µg/mL,0.1 µg/mL,0.78 µg/mL,0.78 µg/mL,0.05 µg/mL,0.2 µg/mL,0.1 µg/mL,1.4 mg/kg,12.3 mg/kg,11.7 mg/kg
CN1CCN(c2c(F)cc3c(=O)c(C(=O)O)c4scc5n4c3c2N(C)C5)CC1,0.05 µg/mL,0.1 µg/mL,0.16 µg/mL,0.05 µg/mL,0.05 µg/mL,0.05 µg/mL,0.05 µg/mL,0.39 µg/mL,0.78 µg/mL,0.05 µg/mL,0.05 µg/mL,0.05 µg/mL,0.9 mg/kg,2.8 mg/kg,10.2 mg/kg
CN1CCN(c2c(F)cc3c(=O)c(C(=O)O)c4scc5n4c3c2N(Cc2ccccc2)C5)CC1.Cl,12.5 µg/mL,25 µg/mL,> 10 µg/mL,25 µg/mL,3.13 µg/mL,25 µg/mL,50 µg/mL,100 µg/mL,100 µg/mL,50 µg/mL,12.5 µg/mL,6.25 µg/mL,,,
CN1CCN(c2c(F)cc3c(=O)c(C(=O)O)c4scc5n4c3c2SC5)CC1,0.2 µg/mL,0.78 µg/mL,0.24 µg/mL,0.2 µg/mL,0.2 µg/mL,0.2 µg/mL,0.2 µg/mL,3.13 µg/mL,3.13 µg/mL,0.1 µg/mL,0.39 µg/mL,0.2 µg/mL,,,
C=CCN1Cc2csc3c(C(=O)O)c(=O)c4cc(F)c(N5CCN(C)CC5)c1c4n23.Cl,0.39 µg/mL,3.13 µg/mL,0.45 µg/mL,0.78 µg/mL,0.39 µg/mL,0.78 µg/mL,12.5 µg/mL,1.56 µg/mL,6.25 µg/mL,0.78 µg/mL,0.78 µg/mL,0.39 µg/mL,,,
CN1CCN(c2c(F)cc3c(=O)c(C(=O)O)c4scc5n4c3c2C(=O)C5)CC1.Cl,12.5 µg/mL,50 µg/mL,> 10 µg/mL,12.5 µg/mL,6.25 µg/mL,12.5 µg/mL,25 µg/mL,100 µg/mL,100 µg/mL,12.5 µg/mL,12.5 µg/mL,6.25 µg/mL,,,
CN1CCN(c2c(F)cc3c(=O)c(C(=O)O)c4scc5n4c3c2N(c2ccccc2)C5)CC1.Cl,3.13 µg/mL,25 µg/mL,1.76 µg/mL,3.13 µg/mL,0.78 µg/mL,3.13 µg/mL,3.13 µg/mL,100 µg/mL,100 µg/mL,3.13 µg/mL,1.56 µg/mL,1.56 µg/mL,,,
CC1COc2c(N3CCN(C)CC3)c(F)cc3c(=O)c(C(=O)O)cn1c23 (centres undefined) [OFLOXACIN],0.1 µg/mL,1.56 µg/mL,,0.1 µg/mL,0.39 µg/mL,,0.1 µg/mL,1.56 µg/mL,1.56 µg/mL,0.05 µg/mL,0.78 µg/mL,0.39 µg/mL,,,
